In data set [1] the test system is mice. Kind of data set: One month treatment toxicity in mice (pathology report). The data set is classed as in vivo, mouse. The following applies: one month treatment (Additional file 1). How it is done: Casp6 transgenic mouse model: All animal procedures followed the Canadian Council on Animal Care guidelines and were approved by the McGill Animal care committees. Sixteen to 20 month old C57BL/6 J mice were bred and aged in the pathogen-free Goodman Cancer Research Centre Mouse Transgenic Facility at McGill University. Mice were housed in a temperature-controlled room at 22 °C and were kept on a 12 h light/dark cycle. Food and water were available at libitum. Casp6 overexpressing mice (KI/Cre) express Casp6p20p10 under the CAG promoter (CMV immediate early enchancer/chicken β-actin promoter fusion) in the CA1 pyramidal cell layer of the hippocampus under the control of calmodulin kinase IIa (CAMKIIa)-regulated Cre expression.
Additional file 1: Pathology report. Contains pharmacokinetic and toxicological analysis of CD-1 mice treated with NWL-117 for 28 days every 3 days. (PDF 3742 kb) Additional file 2: Figures S1-S4. Contains additional information to complement Figs. 3, 4, and 6 of the manuscript. (PDF 463 kb)

Data set [2] concerns mice hippocampi. Kind of data set: Hippocampal Casp6 substrates, synaptic and glial markers after treatment (western blot, immunohistochemistry). The data set is classed as in vivo, mouse. The source says: Protein extracts from HCT116 cells and human primary neurons were subjected to western blotting analyses. The 10630 (1:10 000) and GN60622 (1:10 000) neoepitope antibodies against the p20 subunit of active Casp6 (Casp6p20) and α-tubulin cleaved by Casp6 (TubΔCasp6) were generated previously in our laboratory. The β-actin clone AC-15 (1:5 000, Sigma-Aldrich, Oakville, ON, CA), Casp6 (1:1 000), Synapsin (1:5 000), full-length α-tubulin (1:1 000, Cell Signalling Technology Inc., Danvers, MA, USA), GFAP (1:3 000, Dako, Burlington, ON, CA), synaptophysin (1:5 000, Sigma, Oakville, ON, CA), and PSD95 clone K28143 (1:5 000, UC Davis/NIH NeuroMab Facility) were purchased. All antibodies were diluted in 5% non-fat dry milk. Secondary anti-mouse (1:5 000, GE Healthcare Life Sciences, Baie D’Urfe, QC, CA) and anti-rabbit antibodies (1:5 000, Dako, Burlington, ON, CA) conjugated to horseradish peroxidase were used to detect immunoreactive proteins using ECL prime western blotting detection reagent (GE Healthcare Life Sciences, Baie D’Urfe, QC, CA) and Kodak BioMax MR film (Kodak, Rochester, NY, USA). Secondary anti-mouse conjugated to alkaline phosphatase (Jackson Immunoresearch Laboratories Inc., West Grove, PA) was developed with nitro-blue tetrazolium (Thermo Fisher Scientific, Waltham, MA, USA) and 5-bromo-4-chloro-3-indolylphosphate (Thermo Fisher Scientific, Waltham, MA, USA) for chromogenic detection of proteins. The western blots were scanned with an HP scanner and the images were not manipulated except to adjust the brightness/contrast and this was done simultaneously to the entire blot. Quantification was performed with the ImageJ software (NIH, Bethesda, MD, USA).
Only males were used and littermates from each genotype (wild type (WT)/WT, WT/Cre, & knock-in (KI/)Cre) were tested together. The experimenter was blind to genotype and treatment groups. Mice were administered 20 mg/kg NWL-117 or physiological saline (0.9% NaCl) by intraperitoneal injections two times 48 h apart. […] Blood brain barrier permeability of NWL-117 caspase inhibitor: Briefly, 18–22 month old Casp6 mice were anesthetised with isoflurane, warmed with a heating blanket, and their physiological vitals (heart rate, body temperature, and respiration) monitored. The skin over the mouse’s neck was shaved, xylocaine applied, and an incision was made along the midline. Under a surgical microscope, the right carotid artery was gently separated from surrounding tissue. Two suture threads were placed at the proximal and distal ends of the carotid, and a small incision was made along the carotid wall. A micro-catheter (attached to a 1 ml syringe controlled by a micropump) was inserted and pushed to the entrance of the internal carotid artery. The catheter was secured in place using suture thread. NWL-117 (20 mg/kg) was infused via the micro-catheter using a pump set at 50 μL/min (total volume between 64 μL and 130 μL). After 5 min, blood was collected by intra-cardiac puncture, the mouse was perfused through the heart with ice cold saline for 2–3 min. The brain was removed and hippocampi were dissected and frozen on dry ice and stored. Samples were sent to the Biopharmacy platform at the University of Montreal (Quebec, Canada) for liquid chromatography and tandem mass spectrometry analysis. The integrity of the blood-brain barrier was confirmed by injecting 3% Evan’s blue solution in 20 month old Casp6 mice. […]
(Immunoblotting shows a protein as a band on a membrane.)

On to `CCC(C)[C@H](NC(=O)[C@H](CCC(=O)O)NC(=O)[C@@H](NC(=O)OCc1ccccc1)C(C)C)C(=O)N[C@H](/C=C/S(C)(=O)=O)CC(=O)O` (stereo partly drawn) [NWL-117], for which the “toxicity after one month treatment” value in data set [1] was “No obvious toxicity”. Moreover, in data set [2] (20 mg/kg i.p.), the “Synapsin, synaptophysin and PSD95 hippocampal protein levels” value is given as “unchanged”; the “TubΔCasp6 immunostaining, CA1, KI/Cre mice” value is “increased non-significantly”; the “TubΔCasp6 immunostaining, CA1, control mice” value is recorded as “non-significantly decreased TubΔCasp6 levels threefold”. Further, in data set [2] (KI/Cre mice hippocampal extracts), the GFAP levels entry is “did not change”. Besides, the “p97 cleaved by Casp6 (Δp97)” value in data set [2] (KI/Cre mice, versus saline) is “not different”.

Values taken from PMC5329948, “Caspase vinyl sulfone small molecule inhibitors prevent axonal degeneration in human neurons and reverse cognitive impairment in Caspase-6-overexpressing mice” (Molecular Neurodegeneration, 2017).
